These results are taken from article PMC11706957 (Scientific Reports, 2025).

Data set [1] concerns the target T1, DYRK1B (Homo sapiens, UniProt Q9Y463).
T1 construct: purchased ThermoFisher Scientific
On the set-up: method as in Dirice et al. 2016. The note with it: reference activity value, ref Dirice et al. 2016; cited from earlier work.

The target in data set [2] is T1, DYRK1B. Description: Lantha (TR-FRET) kinase binding assay. The procedure:
Kinase binding activity was performed as described in[23]. Briefly, a 12-points dilution series of the compounds was prepared in DMSO and further diluted 1:33 in assay buffer A (50 mM HEPES (Sigma-Aldrich) pH 7.5, 10 mM MgCl2 (Sigma-Aldrich) 1 mM EGTA (Sigma-Aldrich) and 0.01% BRIJ-35 (ThermoFisher Scientific, Waltham, MA, USA). The GST tagged kinases, antibodies and tracer were purchased from ThermoFisher Scientific. DYRK1A and DYRK1B were each mixed with rabbit anti GST Europium tagged antibody in assay buffer A at concentrations of 15 nM kinase and 6 nM antibodies. Tracer 236 was diluted to 90 nM (DYRK1A) or 30 nM (DYRK1B) in assay buffer A. Finally, the kinase-antibody solution, compound solution and tracer solution were mixed together 1:1:1 (5µL each) in white, non-binding, round bottom 384 well microplates (Corning Inc, Kennebunk, ME, USA) mixed at 1000 rpm for 1 min and incubated in the dark at RT in humid atmosphere for 1 h. Fluorescence measurements were taken using a EnVision 2104 Multilabel reader (PerkinElmer, Shelton, CT, USA), excitation wavelength was set to 340 nm and emission was read at both 615 nm (8.5 nm bandwidth) and 665 nm (7.5 nm bandwidth) over 200ms with a 100ms delay between excitation and emission measurements. Emission ratio signals (EM) were calculated as the ratio between the 665 nm signal and the 615 nm signal. […]
For orientation: TR-FRET usually uses a lanthanide donor and a delayed reading to cut background.

In data set [3] the test system is RIN-M5F cells. Description: Cell viability (MTS, CellTiter 96 AQueous One) in cytokine-treated cells. It is filed as cell-based, rat. The procedure:
(§1) Rat beta cells RIN-M5F (purchased from ATCC, Manassas, VA, USA, product code ATCC-CRL-11605, passage number below 40 for all experiments presented in this manuscript) were cultured in RPMI-1640 (cat# R5886, Sigma-Aldrich, Saint Louis, MO, USA) supplemented with 10% FBS (Biowest, Nauillé, France), 2 mM L-glutamine (Biowest), 1 mM sodium pyruvate (Merck, Darmstadt, Germany) and 1x Penicillin-Streptomycin (Sigma-Aldrich) according to manufacturer’s instructions. Cells were seeded 3 days before the start of each experiment to allow full attachment. In experiments analysing the effects of cytokines, cells were treated with 20 ng/ml human IL-1β and 20 ng/ml rat IFNγ (Peprotech, Rocky Hill, NJ, USA) for a given time as indicated. Mycoplasma was tested as negative using MycoAlert® Mycoplasma Kit (Lonza, Basel, Switzerland).
RIN-M5F cells were cultured in 96-well plates, 2 × 10^4 cells/well. […] Control wells with RPMI-1640 alone or supplemented with DMSO (Sigma-Aldrich, final concentration 10%) were used to estimate absorbance at 100% or 0% viability, respectively. […] The cells were thereafter incubated for an additional 72 h, and cell viability was measured by CellTiter 96®AQueous One Solution Assay (Promega, Madison, WI, USA) according to the manufacturer’s instructions. Absorbance at 490 nm was measured using a Spark® multimode microplate reader (Tecan, Männedorf, Switzerland). […]

Another data set concerns phospho-p27^kip1 (Ser10). Description: Western blot of phosphorylated p27KIP. It is filed as cell-based, rat. The note with it: 48 h, no cytokines. How it is done: (§2) RIN-M5F cells were seeded in 6-well plates, 6 × 10^5 cells/well. […] After centrifugation (16.9 RCF, 15 min at 4 °C) the samples were directly diluted in NuPAGE™ LDS Sample Buffer (4X, Invitrogen) supplemented with NuPAGE™ Sample Reducing Agent (10X, Invitrogen), boiled at 95 °C for 5min and loaded on gel (NuPAGE™ 4–12%, Bis-Tris, Invitrogen). Protein transfer to PVDF membrane was performed by the iBlot™ dry blotting system (Invitrogen) according to manufacturer’s instructions. The membrane was blocked using SuperBlock™ Blocking Buffer (Thermo Fisher Scientific) and subsequently cut in half around 60 kDA, the top half was incubated with primary antibodies for phospho-dyrk1a/b (Tyr321, Tyr273) (1:500, Invitrogen, ref: PA5-64574), while the bottom half was incubated with phospho-p27^kip1 (Ser10) (1:200, Invitrogen, ref:34-6300) over night at 4 °C. After washing, the membrane was incubated with Alexa488-conjugated secondary antibody (1:5000, goat anti-rabbit, Invitrogen) for 2 h and imaged with a PharoxFX imager (Bio-Rad, Hercules, CA, USA). […] Protein quantification was performed with ImageJ (National Institutes of Health, Bethesda MD, USA), using the gel analysis tool to get the integrated pixel intensity for each band.
On the technique in general: A western blot detects proteins with antibodies after separation by electrophoresis.

In data set [4] the test system is phospho-dyrk1a/b (Tyr321, Tyr273). Description: Western blot of phosphorylated DYRK1A/B. Format: cell-based, rat. The note with it: 48 h, no cytokines. How it is done: as §2
For the next data set, the system named is 48 cell lines. On the set-up: method as in PMID 31647655. The note with it: cited from earlier work.
The test system of data set [5] is RIN-M5F cells. Description: Cell cycle distribution (PI staining, flow cytometry). Format: cell-based, rat. The procedure: as §1
RIN-M5F cells were seeded in 6-well plates, 6 × 10^5 cells/well. […] After stimulation, the cells were washed with phosphate buffered saline (PBS) and trypsinated for 5 min at 37 °C, and fixed in ice-cold ethanol (70%) at 4 °C until analysis. The cells were stained by FxCycle™ PI/RNase Staining Solution kit (Invitrogen) according to manufacturer’s instructions and analysed by flow cytometry (CytoFLEX, Beckman Coulter). The percentages of cells in G1, S1 and G2/M was determined using the CytExpert software.
On the technique in general: A flow cytometer gives signals particle by particle.

In data set [6] the test system is RIN-M5F cells. Description: EdU incorporation (flow cytometry). The note with it: for Average increase of EdU + labelling: versus untreated. Format: cell-based, rat. The procedure:
as §1
RIN-M5F cells were seeded into 6 well plates, 6 × 10^5 cells per well. […] Subsequently, the cells were stained with 10 µM Click-iT EdU (Invitrogen, Waltham, MA, USA) for 2 h, and analysed by flow cytometry (CytoFLEX, Beckman Coulter, Brea, CA, USA) according to the manufacturer’s instructions. EdU incorporation was analysed using the CytExpert software.

The target of a further data set is T2, DYRK2 (Homo sapiens, UniProt Q92630).
T2 sequence (Q92630 1-601): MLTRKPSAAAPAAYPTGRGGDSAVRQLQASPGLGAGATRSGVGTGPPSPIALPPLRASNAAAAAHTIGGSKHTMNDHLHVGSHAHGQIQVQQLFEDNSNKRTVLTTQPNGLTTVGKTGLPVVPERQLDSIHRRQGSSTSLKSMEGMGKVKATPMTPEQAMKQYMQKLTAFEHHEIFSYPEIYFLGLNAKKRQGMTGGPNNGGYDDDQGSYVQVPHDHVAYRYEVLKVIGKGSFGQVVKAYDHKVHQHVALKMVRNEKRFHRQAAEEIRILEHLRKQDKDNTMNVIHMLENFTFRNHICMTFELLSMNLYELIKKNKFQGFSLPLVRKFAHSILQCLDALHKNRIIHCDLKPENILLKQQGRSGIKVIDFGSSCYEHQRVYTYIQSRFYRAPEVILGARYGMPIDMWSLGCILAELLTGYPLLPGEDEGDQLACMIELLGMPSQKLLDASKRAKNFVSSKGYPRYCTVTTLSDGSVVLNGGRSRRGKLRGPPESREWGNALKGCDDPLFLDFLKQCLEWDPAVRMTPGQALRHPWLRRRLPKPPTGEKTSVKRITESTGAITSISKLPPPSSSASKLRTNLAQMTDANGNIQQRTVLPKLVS
The data set is described as follows: Kinase activity assay (33P-ATP radioactive filter binding). The note with it: duplicate 10-point concentration curve, mean ± SD. It is filed as biochemical. How it is done: (§3) Each kinase was assayed using a duplicate 10-point concentration curve.

Another data set deals with T3, DYRK3 (Homo sapiens, UniProt O43781).
T3 sequence (O43781 1-588): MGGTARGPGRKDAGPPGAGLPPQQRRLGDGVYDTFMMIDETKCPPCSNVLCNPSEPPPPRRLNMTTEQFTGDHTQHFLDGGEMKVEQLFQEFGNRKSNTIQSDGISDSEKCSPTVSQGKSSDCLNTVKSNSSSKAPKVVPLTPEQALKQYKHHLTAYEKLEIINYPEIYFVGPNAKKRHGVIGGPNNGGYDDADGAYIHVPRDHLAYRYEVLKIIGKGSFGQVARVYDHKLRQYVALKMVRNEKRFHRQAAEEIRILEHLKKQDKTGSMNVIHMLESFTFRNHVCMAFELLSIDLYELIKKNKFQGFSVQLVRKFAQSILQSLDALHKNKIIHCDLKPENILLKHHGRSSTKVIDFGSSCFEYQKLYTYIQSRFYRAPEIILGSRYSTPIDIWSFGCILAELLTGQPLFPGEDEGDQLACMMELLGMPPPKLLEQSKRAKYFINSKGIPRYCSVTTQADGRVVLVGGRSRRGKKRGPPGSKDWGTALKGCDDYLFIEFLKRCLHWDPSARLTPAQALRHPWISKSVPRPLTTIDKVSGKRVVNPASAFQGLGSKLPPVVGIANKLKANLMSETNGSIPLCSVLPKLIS
Described as above. The note with it: duplicate 10-point concentration curve, mean ± SD. It is filed as biochemical. The procedure: as §3

Data set [7] relates to RIN-M5F cells. The data set is described as follows: Caspase 3/7 activity (Caspase-Glo). It is filed as cell-based, rat. The procedure:
as §1
RIN-M5F cells were cultured in 96-well plates, 2 × 10^4 cells/well. […] Caspase 3/7 activity was measured by Caspase-Glo (Promega) according to the manufacturer’s instructions. Each experiment was performed in triplicates.

The test system of the next data set is HepG2 cells. Description: EdU incorporation in HepG2 cells. Format: cell-based. The note with it: 10 µM BfC versus untreated. An excerpt:
Supplementary Figure S2. Redocking of harmine in DYRK1A. The interactions between the compounds and the kinase hinge are identical (red circles) in both calculated and experimental model. […]
compounds are shown as cartoon, with blue for nitrogen atoms, white for hydrogen, red for oxygen, purple for iodine and either orange (experimental) or green (docked) for carbon atoms. The protein active site is shown as a grey surface and important residues are shown as wire, dashed line represent […]
µM). Open bars: EdU negative cells. Closed bars: EdU positive cells. Closed circles: Untreated cells. […]

Where [8] appears, read: 20 µM, cells treated with cytokines.

Where “and” joins values, the source holds several entries; their conditions need not be identical. Equal values may be shown once.

T1 sequence (Q9Y463 whole entry): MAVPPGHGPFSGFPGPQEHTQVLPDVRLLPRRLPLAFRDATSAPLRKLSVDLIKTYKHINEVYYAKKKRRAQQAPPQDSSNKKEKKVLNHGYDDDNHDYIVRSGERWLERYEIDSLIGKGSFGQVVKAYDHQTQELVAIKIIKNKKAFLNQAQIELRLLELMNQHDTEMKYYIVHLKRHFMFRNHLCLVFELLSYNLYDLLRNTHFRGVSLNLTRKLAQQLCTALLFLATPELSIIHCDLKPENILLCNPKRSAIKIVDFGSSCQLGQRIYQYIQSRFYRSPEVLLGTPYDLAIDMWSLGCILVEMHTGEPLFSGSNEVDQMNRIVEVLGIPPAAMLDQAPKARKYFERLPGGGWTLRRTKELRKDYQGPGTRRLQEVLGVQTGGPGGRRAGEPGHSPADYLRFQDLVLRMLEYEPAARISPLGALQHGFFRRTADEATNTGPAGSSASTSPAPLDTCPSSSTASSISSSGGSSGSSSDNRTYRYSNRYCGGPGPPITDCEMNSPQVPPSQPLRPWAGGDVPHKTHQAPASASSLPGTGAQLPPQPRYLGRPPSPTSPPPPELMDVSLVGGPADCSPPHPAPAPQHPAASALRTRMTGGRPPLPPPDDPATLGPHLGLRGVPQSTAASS

`Nc1ncnc2c1c(I)cn2[C@@H]1O[C@H](CO)[C@@H](O)[C@H]1O` [5IT, reference compound]: the 50% inhibitory concentration (IC50) (in general, the point on the concentration scale where inhibition reaches its midpoint) at DYRK1B [1] is 10 nM. At DYRK1B [2] (lanthaScreen, 95% confidence interval in bracket), binding was put at a Kd of 0.0024 µM.

In the case of `COc1cc2c(-c3cnc(-c4ccc[nH]4)o3)c[nH]c2cc1Br` [BfC, breitfussin C], in the data set on RIN-M5F cells [3] (concentrations above 10–20 µM (up to 40 µM), with cytokines), the “Protective effect against cytokine-induced cell death at higher concentrations” value is listed as “lost”. Besides, the “Concentration range of effective protection against cytokine-induced cell death” value in the data set on RIN-M5F cells [3] (dose-response 1.25-40 µM with cytokines) lay in the range of 10 to 20 µM. For the same compound, the “Decrease of expression of p-p27^KIP compared to control” value in the data set on phospho-p27^kip1 (Ser10) (10 µM) is reported as 23%; with phospho-p27^kip1 (Ser10) (20 µM), 42%. For the same compound, the results for the “Decrease of expression of p-DYRK1A/B compared to control” value in [4] (10 µM) and in data set [4] (20 µM) were “approximately 50%” and around 62%, respectively. Besides, the “Concentration at which cytotoxic to 48 cell lines” value in the data set with 48 cell lines was at most 10 µM. In addition, the equilibrium dissociation constant (Kd) (as a rule, a measure of binding affinity in units of concentration) at DYRK1B [2] (TR-FRET, approximate because of compound autofluorescence) is ~9 µM and 9 µM. Also, the “Change of cells in G0/G1 phase” value with RIN-M5F cells [5] (10 µM, without cytokines) is on record as “significantly decreased”. In addition, the “Change of cells in S and G2/M phase” value in the data set with RIN-M5F cells [5] (10 µM, without cytokines) was “increased”; with RIN-M5F cells [5] (setting [8]) it was “increased”; in the data set with RIN-M5F cells [5] (20 µM, without cytokines), “increased”. In addition, the “Number of cells in G0/G1” value with RIN-M5F cells [5] (20 µM, 48 h, without cytokines, control 76.9 ± 0.6%) was 66.6 ± 1.3%. Moreover, the “Change of number of cells in G0/G1” value in the data set with RIN-M5F cells [5] (setting [8]) is listed as “significantly decreased”. Also, the “EdU + labelling rate” value is 8.8 ± 0.8% in the data set with RIN-M5F cells [6] (10 µM pretreatment, cytokine treated cells, cytokines alone 7.7 ± 0.8%); 17.1 ± 0.9% in the data set on RIN-M5F cells [6] (10 µM, without cytokines, untreated 15.2 ± […]); 11.0 ± 1.1% with RIN-M5F cells [6] (20 µM pretreatment, cytokine treated cells, cytokines alone 7.7 ± 0.8%); 18.4 ± 1.5% in the data set on RIN-M5F cells [6] (20 µM, without cytokines, untreated 15.2 ± […]). Further, the “Average increase of EdU + labelling” value with RIN-M5F cells [6] (10 µM, without cytokines) amounted to 12.5%; in the data set with RIN-M5F cells [6] (20 µM, without cytokines) it was 21.1%. The IC50 on DYRK2 stood at 1400 ± 500 nM; on DYRK3, 4.4 ± 0.8 µM. Further, the “Caspase 3/7 activity compared to control” value in the data set with RIN-M5F cells [7] (10 µM pretreatment 24 h before cytokines, cytokines alone 199%) was found to be 210 ± 15%; in the data set with RIN-M5F cells [7] (10 µM, 48 h, without cytokines) it was 127 ± 2%; with RIN-M5F cells [7] (20 µM pretreatment 24 h before cytokines, cytokines alone 199%), 241 ± 20%; with RIN-M5F cells [7] (20 µM, 48 h, without cytokines), 186 ± 19%. Moreover, the “EdU incorporation in HepG2 cells” value in the data set on HepG2 cells was “decreased”.
